In US20260091068A1, “METHODS FOR TREATING AND PREVENTING DISEASES” (priority 2017, published 2026):

Legend:
[1] = tested on: bacteriophages from swabs of hands, masks and work surfaces; test: Bacterial DNA in blood (16S RT-PCR) after water with phages from treated objects and surfaces (Example 5); type: in vivo; conditions: average of 3 experiments
Protocol: Fourteen days after including any product enriched with bacteriophage mixture into the mice diet, the mice blood was aseptically taken and bacterial DNA content in the bloodstream was evaluated. Increased DNA content in blood indicates an increase of intestinal permeability reflecting increased translocation of microorganisms from the gastro-intestinal tract into the systemic circulation. (See Deitch E. A., et al. Effect of hemorrhagic shock on bacterial translocation, intestinal morphology, and intestinal permeability in conventional and antibiotic-decontaminated rats. Critical care medicine 18.5 (1990), 529-536). DNA was isolated with a kit for the isolation of nucleic acids DNAQamp Qiagen. Quantitative determination of DNA was carried out by RT-PCR using universal bacterial primers for 16S rRNA (upb2 with a universal FAM-probe for bacteria: (5FAM) aat acg ttc ccg ggt ctt gta cac acc gcc cgt cac act att (3′RTQ1) (SEQ ID NO: 6) and DG74 5′aac tgg agg aag gtg ggg at 3′ (SEQ ID NO: 7)) on Bio-Rad CFX96 amplifier. Reaction conditions: 95° C.—5 min. 45 cycles 95° C.—15 sec, 60° C.—30 sec, fluorescence reading.
Bacteriophages were obtained from the swabs from hands and masks of medical staff and work surfaces in surgical clinics. The hands, masks and surfaces were subjected to various kinds of treatments in order to reduce the amount of phages on them. After the treatment, phages were isolated by the Gratia's method (Kropinski et al. “Enumeration of bacteriophages by double agar overlay plaque assay.” Bacteriophages: Methods and Protocols, Volume 1: Isolation, Characterization, and Interactions, Humana Press, 2009, vol. 501, 69-76). Test material (swabs) was filtered through 0.45 μm Millipore membrane filters. The resulting filtrate was incubated at 60° C. for 60 minutes to inactivate bacteria and was added to 100 μL of water. The resulting solutions were given to animals with water, and the development of an increased intestinal permeability was evaluated as described in Example 4, above. The animals were divided into the following treatment groups:
Group “PHG”: water with the addition of bacteriophages obtained from objects and surfaces treated with a 0.1% (1000 mg/L) polyhexamethylene guanidine derivative preparation. The polyhexamethylene guanidine preparation used in this treatment was prepared by condensation polymerization of hexamethylenediamine with guanidine salt and hydrazine hydrate, as described in U.S. Provisional Pat. Appl. No. 62/510,446, U.S. Pat. No. 8,993,712, U.S. Pat. Appl. Pub. No. 2017/0013838 and Int. Pat. Appl. Pub. No. WO2016/118043.
Group “Photocatalyst”: water with the addition of bacteriophages obtained from objects and surfaces treated with TiO2 and activated by ultraviolet radiation. […]

hairless mice = test: General skin elasticity after 36 weeks of water application (Example 7); type: in vivo; conditions: vs untreated left part of the back
Protocol: In the experiment, hairless mice, 5 males and 5 females, (C57BL/6 albino/hairless, The Jackson Laboratories) of both sexes were used. Starting from 4 weeks of age, animals were daily treated with tap water or mineral water from artesian source, the water applied on the right half of the back. After 36 weeks, skin condition parameters were evaluated (SoftPlusCPU (Callegaris.p.a.)) in the application area, compared with the untreated left part of the back. Animals were divided into the following treatment groups:
Group “Filtration”: water filtered through 0.22 μm Millipore membrane filters.
Group “Electron”: water treated with an electron flow.
Group “Prototype”: water treated with potassium nitrate.

[2] = tested on: bacteriophages isolated from the feces of obese mice; test: Body weight after 21 weeks of drinking water with phages from obese mice (Example 6); type: in vivo; conditions: treated drinking water with phages from obese mice; standard diet
Protocol: To assess a possibility of preventing changes in the GI microbiota leading to obesity by limiting bacteriophage entry from the environment, bacteriophages were isolated from the feces of Group #1 mice in which obesity was modeled. The obtained phages were added to drinking water of mice (age 12 weeks) from Group #2 for 21 weeks. The diet of the animals remained standard, i.e., not a high fat diet. The mice in Group #2 were divided into the following treatment groups:
Group “Filtration”: water with the addition of bacteriophages, filtered through 0.45 μm Millipore membrane filters.
Group “Pascalization”: water with the addition of bacteriophages, treated with high pressure (340 MPa).
Group “Prototype”: water with the addition of bacteriophages, treated with potassium nitrate.

[3] = tested on: bacteriophages isolated from waste water; test: Bacterial DNA in blood (16S RT-PCR) after diet with phage-enriched, treated products (Example 4); type: in vivo, Wistar rats; conditions: blood after 14 days, average of 3 experiments
Protocol: As a source for the isolation of bacteriophages, waste water from canalization was used. The phages were isolated by Gratia's method (Kropinski et al. “Enumeration of bacteriophages by double agar overlay plaque assay.” Bacteriophages: Methods and Protocols, Volume 1: Isolation, Characterization, and Interactions, Humana Press, 2009, vol. 501, 69-76). Test material (waste water) was filtered through 0.45 μm Millipore membrane filters. The resulting filtrate was incubated at 60° C. for 60 minutes to inactivate bacteria and was added to water or products (e.g., milk, yogurt, curd, cheese, minced meat, minced chicken, fish, fruit mix, vegetable mixture) in 100 μL volume. The resulting food products enriched with phages were included in the mice diet. […]
Fourteen days after including any product enriched with bacteriophage mixture into the mice diet, the mice blood was aseptically taken and bacterial DNA content in the bloodstream was evaluated. […] Quantitative determination of DNA was carried out by RT-PCR using universal bacterial primers for 16S rRNA (upb2 with a universal FAM-probe for bacteria: (5FAM) aat acg ttc ccg ggt ctt gta cac acc gcc cgt cac act att (3′RTQ1) (SEQ ID NO: 6) and DG74 5′aac tgg agg aag gtg ggg at 3′ (SEQ ID NO: 7)) on Bio-Rad CFX96 amplifier. […] 45 cycles 95° C.—15 sec, 60° C.—30 sec, fluorescence reading.

Row | Compound | Number of cycles during which bacterial DNA appears (Cq) [1] [cycles] | Change in parameter of general skin elasticity (hairless mice; Tap water) [%] | Change in parameter of general skin elasticity (hairless mice; Well water) [%] | Animal body weight after 21 weeks [2] [g] | Number of cycles during which bacterial DNA appears (Cq) ([3]; phages added to cheese) [cycles] | Number of cycles during which bacterial DNA appears (Cq) ([3]; phages added to water) [cycles]
1 | OO [Peroxide, H2O2] | 31.65 | – | – | – | – | –
2 | O=[N+]([O-])[O-].[K+] [Prototype, potassium nitrate] | 17.92 | −42.9 | −41.4 | 46 | 19.79 | 17.28
3 | [Cu+2] [Metals, Cu^2+] | 29.51 | – | – | – | – | –
4 | O=[O+][O-] [Ozone, ozone] | 27.74 | – | – | – | – | –
